# Test results taken from US12240862B2, “Inhibitors of peptidylarginine deiminases” (Gilead Sciences, Inc., priority 2020, dated 2025).
# Molecular target: T1, human PAD4 (Homo sapiens, UniProt Q9UM07)
# T1 construct: human PAD4 (NM_012387), A2P663, was PCR amplified; His-SUMO (N, cleaved yes); made in house; host or cells: E. coli BL21(DE3)
# Assay: In vitro PAD4 BAEE biochemical assay
# Conditions: human PAD4, BAEE substrate; 5 nM PAD4, 2 mM calcium chloride, 3 mM BAEE; geometric mean of multiple experiments
# Procedure, shortened: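 Ammonia generated from BAEE serves as the readout, measured by o-phthalaldehyde after EDTA termination. Final conditions: 5 nM human PAD4 (SUMO tag cleaved), 2 mM CaCl2, 3 mM BAEE, pH 7.6 MOPS buffer, 25 °C for 2 h following a 30-min compound preincubation.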
# T1 sequence (Q9UM07 2-663): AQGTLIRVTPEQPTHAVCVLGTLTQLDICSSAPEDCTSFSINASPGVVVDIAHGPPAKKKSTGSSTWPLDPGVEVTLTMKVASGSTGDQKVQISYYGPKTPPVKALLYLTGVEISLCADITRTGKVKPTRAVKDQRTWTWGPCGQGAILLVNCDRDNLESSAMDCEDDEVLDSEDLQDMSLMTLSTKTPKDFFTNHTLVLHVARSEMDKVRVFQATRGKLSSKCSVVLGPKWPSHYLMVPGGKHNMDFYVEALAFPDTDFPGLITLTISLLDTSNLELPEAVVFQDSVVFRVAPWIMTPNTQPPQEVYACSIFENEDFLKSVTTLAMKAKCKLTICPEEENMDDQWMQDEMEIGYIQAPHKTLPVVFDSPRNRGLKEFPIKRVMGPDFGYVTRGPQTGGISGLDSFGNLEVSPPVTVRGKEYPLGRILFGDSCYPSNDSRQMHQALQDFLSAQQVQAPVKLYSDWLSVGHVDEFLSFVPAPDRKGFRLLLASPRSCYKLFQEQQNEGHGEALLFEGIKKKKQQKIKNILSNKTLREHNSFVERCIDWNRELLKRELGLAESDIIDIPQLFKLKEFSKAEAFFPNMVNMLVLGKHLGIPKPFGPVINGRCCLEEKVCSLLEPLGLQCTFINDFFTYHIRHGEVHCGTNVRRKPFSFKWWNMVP
row,Molecule,IC50
1,"COc1cc(C(=O)N2[C@H]3CC[C@@H]2[C@H](N)C3)cc2nc(-c3cc4ccc([C@@H](C)NC(=O)[C@H](C)OC)nc4n3CC3CC3)c(C)n12 [Example 34, (2~{S})-~{N}-[(1~{R})-1-[2-[7-[(1~{R},2~{R}, 4~{S})-2-amino-7-azabicyclo[2.2.1]heptane-7-carbonyl]-5-methoxy-3-methylimidazo [1,2-a]pyridin-2-yl]-1-(cyclopropylmethyl)pyrrolo[2,3-b]pyridin-6-yl]ethyl]-2-methoxypropanamide]",57.9 nM
2,"COc1cc(C(=O)N2[C@H]3CC[C@@H]2[C@H](N)C3)cc2nc(-c3cc4ccc([C@@H](C)NC(=O)C56CC(C(F)(F)F)(C5)C6)nc4n3CC3CC3)c(C)n12 [Example 157, ~{N}-[(1~{R})-1-[2-[7-[(1~{R},2~{R},4~{S})-2-amino-7-azabicyclo[2.2.1]heptane-7-carbonyl]-5-methoxy-3-methylimidazo [1,2-a]pyridin-2-yl]-1-(cyclopropylmethyl)pyrrolo [2,3-b]pyridin-6-yl]ethyl]-3-(trifluoromethyl)bicyclo [1.1.1]pentane-1-carboxamide]",133 nM
3,"COc1cc(C(=O)N2CCC[C@@H](N)C2)cc2nc(-c3cc4ccc([C@@H](C)NC(=O)N5CC(O)C5)nc4n3CC3CC3)c(C3CC3)n12 [Example 146, ~{N}-[(1~{R})-1-[2-[7-[(3~{R})-3-aminopiperidine-1-carbonyl]-3-cyclopropyl-5-methoxyimidazo [1,2-a]pyridin-2-yl]-1-(cyclopropylmethyl)pyrrolo [2,3-b]pyridin-6-yl]ethyl]-3-hydroxyazetidine-1-carboxamide]",160 nM
4,COc1cc(C(=O)N2CC[C@H]3CCN[C@H]3C2)cc2nc(-c3cc4ccc(N(C(F)F)S(C)(=O)=O)nc4n3CC3CC3)c(C)n12 [Example 325],154 nM
5,"CS(=O)(=O)N(c1ccc2cc(-c3nc4cc(C(=O)N5[C@@H]6CC[C@@H](N)[C@H]5CC6)ccn4c3CC3CC3)n(CC3CC3)c2n1)C(F)F [Example 436, ~{N}-[2-[7-[(1~{R},2~{R}, 5~{R})-2-amino-8-azabicyclo[3.2.1]octane-8-carbonyl]-3-(cyclopropylmethyl)imidazo [1,2-a]pyridin-2-yl]-1-(cyclopropylmethyl)pyrrolo [2,3-b]pyridin-6-yl]-~{N}-(difluoromethyl) methanesulfonamide]",202 nM
6,"CCc1ccc2cc(-c3nc4cc(C(=O)N5CC6(N)CCC5CC6)cc(OC)n4c3C)n(CC3CC3)c2n1 [Example 593, (4-amino-2-azabicyclo[2.2.2]octan-2-yl)-[2-[1-(cyclopropylmethyl)-6-ethylpyrrolo[2,3-b]pyridin-2-yl]-5-methoxy-3-methylimidazo[1,2-a]pyridin-7-yl]methanone]",1900 nM
7,"[2H]C([2H])([2H])OC(=O)N[C@H](C)c1ccc2cc(-c3nc4cc(C(=O)N5[C@H]6CC[C@@H]5[C@H](N)C6)cc(OC)n4c3C)n(CC3CC3)c2n1 [Example 164, trideuteriomethyl~{N}-[(1~{R})-1-[2-[7-[(1~{R},2~{R},4~{S})-2-amino-7-azabicyclo[2.2.1]heptane-7-carbonyl]-5-methoxy-3-methylimidazo[1,2-a]pyridin-2-yl]-1-(cyclopropylmethyl)pyrrolo [2,3-b]pyridin-6-yl]ethyl] carbamate]",79 nM
8,"~{N}-[(1~{R})-1-[2-[7- [(1~{R},2~{R},4~{S})-2- amino-7- azabicyclo[2.2.1]heptane- 7-carbonyl]-3-cyclopropyl- 5-methoxyimidazo [1,2-a]pyridin-2-yl]-1-(1- bicyclo[1.1.1] pentanylmethyl)pyrrolo [2,3-b]pyridin-6-yl]ethyl]- 3-fluorobicyclo[1.1.1] pentane-1-carboxamide [Example 487]",331 nM
9,"COc1cc(C(=O)N2[C@H]3CC[C@@H]2[C@H](N)C3)cc2nc(-c3cc4ccc(C(C)CC(=O)N5CCCC5)nc4n3CC3CC3)c(C)n12 (some centres unmarked) [Example 528, 3-[2-[7-[(1~{R},2~{R}, 4~{S})-2-amino-7-azabicyclo[2.2.1]heptane-7-carbonyl]-5-methoxy-3-methylimidazo[1,2-a]pyridin-2-yl]-1-(cyclopropylmethyl)pyrrolo [2,3-b]pyridin-6-yl]-1-pyrrolidin-1-ylbutan-1-one]",64.3 nM
10,"COc1cc(C(=O)N2CCC[C@@H](N)C2)cc2nc(-c3cc4ccc([C@@H](C)NC(=O)C(C)(C)O)nc4n3CC3CC3)c(C)n12 [Example 127, ~{N}-[(1~{R})-1-[2-[7-[(3~{R})-3-aminopiperidine-1-carbonyl]-5-methoxy-3-methylimidazo [1,2-a]pyridin-2-yl]-1-(cyclopropylmethyl)pyrrolo [2,3-b]pyridin-6-yl]ethyl]-2-hydroxy-2-methylpropanamide]",76.2 nM
11,"COc1cc(C(=O)N2[C@H]3CC[C@@H]2[C@H](N)C3)cc2nc(-c3cc4ccc([C@@H](C)NC(=O)NCc5cccnc5)nc4n3CC3CC3)c(C)n12 [Example 226, 1-[(1~{R})-1-[2-[7-[(1~{R},2~{R},4~{S})-2-amino-7-azabicyclo[2.2.1]heptane-7-carbonyl]-5-methoxy-3-methylimidazo [1,2-a]pyridin-2-yl]-1-(cyclopropylmethyl)pyrrolo [2,3-b]pyridin-6-yl]ethyl]-3-(pyridin-3-ylmethyl)urea]",42.3 nM
12,"CCc1ccc2cc(-c3nc4cc(C(=O)N5CCC[C@@H](N)C5)cc(OC)n4c3C3CCC3)n(CC3CC3)c2n1 [Example 576, [(3~{R})-3-aminopiperidin-1-yl]-[3-cyclobutyl-2-[1-(cyclopropylmethyl)-6-ethylpyrrolo[2,3-b]pyridin-2-yl]-5-methoxyimidazo [1,2-a]pyridin-7-yl]methanone]",2150 nM
13,"COc1cc(C(=O)N[C@H]2CNCC[C@@H]2C)cc2nc(-c3cc4ccc(N(C(F)F)S(C)(=O)=O)nc4n3CC3CC3)c(C)n12 [Example 282, 2-[1-(cyclopropylmethyl)-6-[difluoromethyl (methylsulfonyl)amino]pyrrolo[2,3-b]pyridin-2-yl]-5-methoxy-3-methyl-~{N}-[(3~{R},4~{S})-4-methylpiperidin-3-yl]imidazo[1,2-a] pyridine-7-carboxamide]",10400 nM

# The remaining molecules from weak to strong by IC50, led by results:
row,IC50,Molecule
1,1960 nM,"COc1cc(C(=O)N2CC[C@@H]3C[C@]3(N)C2)cc2nc(-c3cc4ccc(N(C(F)F)S(C)(=O)=O)nc4n3CC3CC3)c(C)n12 [Example 363, ~{N}-[2-[7-[(1~{R},6~{R})-1-amino-3-azabicyclo[4.1.0]heptane-3-carbonyl]-5-methoxy-3-methylimidazo[1,2-a]pyridin-2-yl]-1-(cyclopropylmethyl)pyrrolo [2,3-b]pyridin-6-yl]-~{N}-(difluoromethyl) methanesulfonamide]"
2,1020 nM,"COc1cc(C(=O)N2CCC[C@@H](N)C2)cc2nc(-c3cc4ccc(OCC(N)=O)nc4n3CC3CC3)c(C)n12 [Example 621, 2-[2-[7-[(3~{R})-3-aminopiperidine-1-carbonyl]-5-methoxy-3-methylimidazo[1,2-a]pyridin-2-yl]-1-(cyclopropylmethyl)pyrrolo [2,3-b]pyridin-6-yl]oxyacetamide]"
3,550 nM,"CC(=O)NCc1c(-c2cc3ccc(N(C(F)F)S(C)(=O)=O)nc3n2CC2CC2)nc2cc(C(=O)N3CCC[C@@H](N)C3)ccn12 [Example 437, ~{N}-[[7-[(3~{R})-3-aminopiperidine-1-carbonyl]-2-[1-(cyclopropylmethyl)-6-[difluoromethyl (methylsulfonyl)amino]pyrrolo[2,3-b]pyridin-2-yl]imidazo[1,2-a]pyridin-3-yl]methyl]acetamide]"
4,538 nM,"COc1cc(C(=O)N2C[C@H]3CC[C@@H]2[C@H](N)C3)cc2nc(-c3cc4ccc(N(C(F)F)S(C)(=O)=O)nc4n3CC3CC3)c(C)n12 [Example 381, ~{N}-[2-[7-[(1~{R},4~{S}, 6~{R})-6-amino-2-azabicyclo[2.2.2]octane-2-carbonyl]-5-methoxy-3-methylimidazo[1,2-a]pyridin-2-yl]-1-(cyclopropylmethyl)pyrrolo [2,3-b]pyridin-6-yl]-~{N}-(difluoromethyl) methanesulfonamide]"
5,259 nM,"COc1cc(C(=O)N2[C@H]3CC[C@@H]2[C@H](N)C3)cc2nc(-c3cc4ccc([C@@H](C)NC(=O)c5ccccc5C(F)(F)F)nc4n3CC3CC3)c(C)n12 [Example 10, ~{N}-[(1~{R})-1-[2-[7-[(1~{R},2~{R},4~{S})-2-amino-7-azabicyclo [2.2.1]heptane-7-carbonyl]-5-methoxy-3-methylimidazo [1,2-a]pyridin-2-yl]-1-(cyclopropylmethyl)pyrrolo[2,3-b]pyridin-6-yl]ethyl]-2-(trifluoromethyl) benzamide]"
6,253 nM,"COc1cc(C(=O)N2[C@H]3CC[C@@H]2[C@H](N)C3)cc2nc(-c3cc4ccc([C@@H](C)NC(=O)c5ccccc5C(F)F)nc4n3CC3CC3)c(C)n12 [Example 11, ~{N}-[(1~{R})-1-[2-[7-[(1~{R},2~{R},4~{S})-2-amino-7-azabicyclo [2.2.1]heptane-7-carbonyl]-5-methoxy-3-methylimidazo [1,2-a]pyridin-2-yl]-1-(cyclopropylmethyl)pyrrolo[2,3-b]pyridin-6-yl]ethyl]-2-(difluoromethyl) benzamide]"
7,122 nM,"COc1cc(C(=O)N2[C@H]3CC[C@@H]2[C@H](N)C3)cc2nc(-c3cc4ccc([C@@H](C)Nc5cnn(C(C)(C)C)c5)nc4n3CC3CC3)c(C)n12 [Example 260, [(1~{R},2~{R},4~{S})-2-amino-7-azabicyclo[2.2.1]heptan-7-yl]-[2-[6-[(1~{R})-1-[(1-~{tert}-butylpyrazol-4-yl)amino]ethyl]-1-(cyclopropylmethyl)pyrrolo [2,3-b]pyridin-2-yl]-5-methoxy-3-methylimidazo [1,2-a]pyridin-7-yl] methanone]"
